In US20100075370A1, “METHOD FOR DETERMINATION OF CELL VIABILITY BY USING FLOW CYTOMETRY WITH FIXED VOLUME ACQUISITION” (TUMORTEC GMBH, priority 2006, published 2010):

System: pBMC from patients with CLL
Assay: Cytotoxicity of several antineoplastic agents on pBMC (LC90), fixed volume flow cytometry
Type: cell-based, human
Conditions: in µg/mL
Excerpt: The necessary peripheral blood (PB) samples from adult patients diagnosed with chronic lymphatic leukaemia (CLL) were collected into heparin during routine diagnosis prior to administration of chemotherapy.

[1] = pBMC of CLL patient #1, ex vivo
[2] = pBMC of CLL patient #2, ex vivo
[3] = pBMC of CLL patient #3, ex vivo
[4] = pBMC of CLL patient #4, ex vivo
[5] = pBMC of CLL patient #5, ex vivo
[6] = pBMC of CLL patient #6, ex vivo
[7] = pBMC of CLL patient #7, ex vivo
[8] = pBMC of CLL patient #8, ex vivo
[9] = pBMC of CLL patient #9, ex vivo
[10] = pBMC of CLL patient #10, ex vivo
[11] = pBMC of CLL patient #11, ex vivo
[12] = pBMC of CLL patient #12, ex vivo
[13] = pBMC of CLL patient #13, ex vivo
[14] = pBMC of CLL patient #14, ex vivo
[15] = pBMC of CLL patient #15, ex vivo
[16] = pBMC of CLL patient #16, ex vivo
[17] = pBMC of CLL patient #17, ex vivo
[18] = pBMC of CLL patient #18, ex vivo
[19] = pBMC of CLL patient #19, ex vivo
[20] = pBMC of CLL patient #20, ex vivo
[21] = pBMC of CLL patient #21, ex vivo
[22] = pBMC of CLL patient #22, ex vivo
[23] = pBMC of CLL patient #23, ex vivo
[24] = pBMC of CLL patient #24, ex vivo
[25] = pBMC of CLL patient #25, ex vivo

SMILES: Nc1nc(Cl)nc2c1ncn2[C@H]1C[C@H](O)[C@@H](CO)O1 [Cladribine ®, Cladribine]
- LC90 [1]: 0.185
- LC90 [2]: 0.184
- LC90 [3]: 0.159
- LC90 [4]: 0.107
- LC90 [5]: 0.083
- LC90 [6]: 0.080
- LC90 [7]: 0.063
- LC90 [8]: 0.059
- LC90 [9]: 0.052
- LC90 [10]: 0.048
- LC90 [11]: 0.047
- LC90 [12]: 0.040
- LC90 [13]: 0.029
- LC90 [14]: 0.027
- LC90 [15]: 0.024
- LC90 [16]: 0.017
- LC90 [17]: 0.015
- LC90 [18]: 0.013
- LC90 [19]: 0.007
- LC90 [20]: 0.006
- LC90 [21]: 0.005
- LC90 [22]: 0.004
- LC90 [23]: 0.000
- LC90 [24]: 8.100
- LC90 [25]: 1.967

SMILES: C[C@]12C=CC(=O)C=C1CC[C@@H]1[C@@H]2[C@@H](O)C[C@@]2(C)[C@H]1CC[C@]2(O)C(=O)CO [Prednisolone ®, Prednisolone]
- LC90 [1]: 40.69
- LC90 [2]: 21.96
- LC90 [3]: 12.17
- LC90 [4]: 2.25
- LC90 [5]: 12.67
- LC90 [6]: 0.88
- LC90 [7]: 35.35
- LC90 [8]: 29.81
- LC90 [9]: 33.00
- LC90 [10]: 11.71
- LC90 [11]: 0.46
- LC90 [12]: 0.86
- LC90 [13]: 2.56
- LC90 [14]: 0.56
- LC90 [15]: 0.82
- LC90 [16]: 0.19
- LC90 [17]: 35.69
- LC90 [18]: 0.51
- LC90 [19]: 0.98
- LC90 [20]: 99.92
- LC90 [21]: 0.54
- LC90 [22]: 12.76
- LC90 [23]: 0.82
- LC90 [24]: 48.18
- LC90 [25]: 0.48

SMILES: O=C1c2c(O)ccc(O)c2C(=O)c2c(NCCNCCO)ccc(NCCNCCO)c21 [Novantrone ®, Mitoxantrone]
- LC90 [1]: 0.06
- LC90 [2]: 0.03
- LC90 [3]: 0.19
- LC90 [4]: 0.15
- LC90 [5]: 0.11
- LC90 [6]: 13.37
- LC90 [7]: 0.14
- LC90 [8]: 0.02
- LC90 [9]: 0.10
- LC90 [10]: 0.05
- LC90 [11]: 12.80
- LC90 [12]: 0.06
- LC90 [13]: 0.40
- LC90 [14]: 0.09
- LC90 [15]: 0.05
- LC90 [16]: 0.01
- LC90 [17]: 0.03
- LC90 [18]: 0.08
- LC90 [19]: 0.07
- LC90 [20]: 0.02
- LC90 [21]: 0.05
- LC90 [22]: 0.05
- LC90 [23]: 0.01
- LC90 [24]: 12.77
- LC90 [25]: 0.17

SMILES: CC[C@]1(O)C[C@H]2CN(CCc3c([nH]c4ccccc34)[C@@](C(=O)OC)(c3cc4c(cc3OC)N(C=O)[C@H]3[C@@](O)(C(=O)OC)[C@H](OC(C)=O)[C@]5(CC)C=CCN6CC[C@]43[C@@H]65)C2)C1 [Oncovin ®, Vincristin]
- LC90 [1]: 2.51
- LC90 [2]: 0.47
- LC90 [3]: 0.14
- LC90 [4]: 10.96
- LC90 [5]: 0.33
- LC90 [6]: 0.07
- LC90 [7]: 0.88
- LC90 [8]: 10.23
- LC90 [9]: 0.47
- LC90 [10]: 0.41
- LC90 [11]: 0.21
- LC90 [12]: 0.97
- LC90 [13]: 0.24
- LC90 [14]: 0.04
- LC90 [15]: 0.44
- LC90 [16]: 0.13
- LC90 [17]: 0.41
- LC90 [18]: 0.70
- LC90 [19]: 0.10
- LC90 [20]: 0.42
- LC90 [21]: 0.10
- LC90 [22]: 0.30
- LC90 [23]: 0.08
- LC90 [24]: 61.57
- LC90 [25]: 0.23
